In patent US20250275978A1 (Cardiff Oncology, Inc., priority 2024, published 2025):
pIC50: −log10 of the molar value. Where “and” joins values, the source holds several entries; their conditions need not be identical. Identical values can stand only once.

Assays:
[1] = test system: AML cell lines; conditions: cited from earlier work
[2] = test system: RAS^WT CRC patient-derived xenograft (PDX) models; experiment: Example 1: antitumor activity in RAS^WT CRC PDX models, 18 days; type: in vivo, nude mice
Method: Twenty RAS^WT CRC PDXs were selected and engrafted in nude mice. […] Tumor volume change from baseline (TVC) was calculated as 100%×(Vt−Vo)/Vo and tumor growth inhibition (TGI) as 100%×(TVCcontrol−TVCtreated)/TVCcontrol. Tumor regression was defined as TVCD18<0 and tumor stasis […].

[3] = test system: cell lines, both from solid as well as hematologic tumors; conditions: large number of cell lines; cited from earlier work
[4] = target: T1, CYP1A2 (Homo sapiens, UniProt P05177); conditions: human liver microsomes; cited from earlier work
T1 construct: was investigated using human liver microsomes; from tissue; host or cells: human liver microsomes
T1 sequence (P05177 1-516): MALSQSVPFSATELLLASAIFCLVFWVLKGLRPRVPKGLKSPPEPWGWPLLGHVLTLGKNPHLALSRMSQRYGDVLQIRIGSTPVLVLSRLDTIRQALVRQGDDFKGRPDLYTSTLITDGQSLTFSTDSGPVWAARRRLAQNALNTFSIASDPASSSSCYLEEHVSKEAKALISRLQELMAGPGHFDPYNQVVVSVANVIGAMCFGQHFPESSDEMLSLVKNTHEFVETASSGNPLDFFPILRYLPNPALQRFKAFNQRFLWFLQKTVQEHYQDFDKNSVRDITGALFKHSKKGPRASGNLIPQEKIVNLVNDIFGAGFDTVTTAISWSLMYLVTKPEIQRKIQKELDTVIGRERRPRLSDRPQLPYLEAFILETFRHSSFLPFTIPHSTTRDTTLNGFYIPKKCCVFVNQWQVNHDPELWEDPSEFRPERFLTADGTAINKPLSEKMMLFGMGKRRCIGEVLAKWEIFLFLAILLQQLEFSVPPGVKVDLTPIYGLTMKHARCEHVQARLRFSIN

[5] = test system: panel of 63 kinases; conditions: low or no activity; cited from earlier work
[6] = rodent and nonrodent species; cited from earlier work
[7] = mice; cited from earlier work
[8] = test system: panel of 296 kinases, including other PLK members; conditions: cited from earlier work
[9] = test system: patients with advanced/metastatic solid tumors; conditions: cited from earlier work
[10] = test system: RAS^WT colorectal cancer patient derived xenograft (PDX) models; experiment: Example 2: antitumor activity in RAS^WT CRC PDX models, 18-19 days; type: in vivo, mice
Method: Tumor volumes (TV) were measured twice a week, and % tumor volume change (TVC) from baseline was calculated as follows: (TVi/TV0−1)×100. Tumor stasis defined as TVC between 0 and 20%, and tumor regression as TVC less than 0% at last measurement. Results are presented as mean±SEM.

[11] = 6 PDXs with acquired resistance to cetuximab
[12] = 7 PDXs with intrinsic resistance to cetuximab

CN1CCN(c2ccc(OC(F)(F)F)c(Nc3ncc4c(n3)-c3c(c(C(N)=O)nn3CCO)CC4)c2)CC1 [onvansertib, 1-(2-hydroxyethyl)-8-{[5-(4-methylpiperazin-1-yl)-2-(trifluoromethoxy)phenyl]amino}-4,5-dihydro-1H-pyrazolo[4,3-h]quinazoline-3-carboxamide]
Inhibition of cell proliferation [1]: nanomolar concentrations | PDXs with potent anti-tumor activity (tumor regression or tumor stasis) ([2]; 20 PDXs, stasis 0≤TVCD18<100, 85%): 17 out of 20 | median TGI on Day 18 ([2]; CetuxR PDXs, IQR 74-124): 108 | median TGI on Day 18 ([2]; CetuxS PDXs, IQR 76-103): 102 | PDXs with tumor regression (TVCD18<0) ([2]; all 20 PDXs, Day 18): 11 PDXs | PDXs with tumor stasis (0≤TVCD18<100) ([2]; all 20 PDXs, Day 18): 6 PDXs | Activity in proliferation assays [3]: low nanomolar activity | Inhibitory effects against CYP1A2 [4]: No significant inhibitory effects | pIC50 [5]: < 6.30 | oral bioavailability [6]: good oral bioavailability | concentrations relevant to achieve significant anti-tumoral activity [7]: ~1 µM | Specificity for PLK1 among a panel of 296 kinases [8]: high specificity | DLTs observed ([9]; 36 mg/m^2/day, 4 patients treated): 2 DLTs | patients who developed DLTs ([9]; 48 mg/m^2/day): 2 of 3 | DLTs at the first 3 dose levels ([9]; 6, 12, and 24 mg/m^2/day): No DLTs | best observed treatment response ([9]; in vivo): stable disease (SD) | maximum tolerated dose (MTD) ([9]; oral, 5 consecutive days every 3 weeks): 24 mg/m^2/day | recovery from hematologic toxicities ([9]; reversible toxicities): ≤ 3 weeks | models with tumor growth inhibition [10, 11]: one | models with tumor stasis or regression [10, 11]: 4/6 | models with tumor growth inhibition ([10]; 7 PDXs sensitive to cetuximab): two | models with tumor stasis or regression ([10]; 7 PDXs sensitive to cetuximab, stasis TVC 0-20%): five and 5/7 | models with tumor growth inhibition [10, 12]: two | models with tumor stasis or regression [10, 12]: 5/7 | models with potent antitumor activity ([10]; 13 PDX models resistant to cetuximab, 69%): 9/13 | models with tumor regression ([10]; all 20 models): 11 models | models with tumor stasis ([10]; all 20 models, TVC between 0 and 20%): 3 models
